For one assay, the target named is T1, human PTHR1 (Homo sapiens, UniProt Q03431).
T1 construct: expressed in transfected cells
T1 sequence (Q03431 27-593): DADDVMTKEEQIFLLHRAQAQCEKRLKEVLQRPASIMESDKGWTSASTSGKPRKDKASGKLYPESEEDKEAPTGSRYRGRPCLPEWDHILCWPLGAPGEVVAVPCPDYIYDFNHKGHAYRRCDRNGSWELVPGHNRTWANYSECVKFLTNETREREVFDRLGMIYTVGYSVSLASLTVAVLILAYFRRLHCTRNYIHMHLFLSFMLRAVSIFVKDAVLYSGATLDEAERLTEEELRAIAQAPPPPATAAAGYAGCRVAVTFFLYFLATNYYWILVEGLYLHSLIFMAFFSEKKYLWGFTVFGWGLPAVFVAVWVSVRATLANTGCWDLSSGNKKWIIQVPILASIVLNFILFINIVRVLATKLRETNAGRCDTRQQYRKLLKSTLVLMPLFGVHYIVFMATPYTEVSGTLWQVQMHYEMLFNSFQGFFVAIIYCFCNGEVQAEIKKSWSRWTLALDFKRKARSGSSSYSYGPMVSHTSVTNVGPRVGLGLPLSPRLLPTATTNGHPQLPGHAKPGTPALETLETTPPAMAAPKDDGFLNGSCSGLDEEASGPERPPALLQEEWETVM
The assay is described as follows: cAMP induction (cAMP-responsive luciferase) in HEK293 cells stably expressing human PTHR1. The following applies: maximal cAMP response, normalized. Format: cell-based. The procedure:
(§1) Measurement of cAMP response. These assays were performed as previously described^27. […] Confluent monolayers of cells were pre-incubated with CO2 independent medium containing D-luciferin (0.5 mM) at 37° C. until a stable baseline level of luminescence was established (20 min). Varying concentrations of ligands were then added, and the time course of luminescence response was recorded using BioTek plate reader.
(§2) Data calculations. Data were processed using Microsoft Excel and GraphPad Prism 6. Data from cAMP dose-response assays were analyzed using a sigmoidal dose-response model with variable slope. Data sets were statistically compared by using Student's t test (two-tailed) assuming unequal variances for the two sets.

Another assay relates to PTHR1YFPΔECD. Nature of the assay: cAMP induction in HEK293 cells stably expressing PTHR1YFPΔECD (YFP replaces extracellular domain). Format: cell-based, human. On the procedure: Measurement of cAMP response. These assays were performed as previously described^27. Briefly, HEK-293-derived cell lines that stably express the Glosensor cAMP reporter (Promega Corp.)^30 and PTHR1, a PTHR1 variant, or PTHR2 were seeded into white sided 96 well plates (50,000 cells/well) and grown to confluency. Confluent monolayers of cells were pre-incubated with CO2 independent medium containing D-luciferin (0.5 mM) at 37° C. until a stable baseline level of luminescence was established (20 min). Varying concentrations of ligands were then added, and the time course of luminescence response was recorded using BioTek plate reader.
as §2
The portion of PTHR1 encoded by exon 2 is not resolved in structural studies (FIG. 12—Panel d)^13, 14, 17, is not important for ligand binding^18, and in past work has been targeted as a site for receptor modification^18, 19. A construct was generated that encodes a PTHR1 variant in which a 14-residue fragment from exon 2 was replaced with a 14-mer epitope tag from the intracellular protein UBC6e (PTHR16E, FIG. 12—Panel d)^20. A receptor construct in which a pH-sensitive green fluorescent protein variant (GFP) was inserted into the portion of the receptor encoded by exon 2 (PTHR1GFP in FIGS. 17A to 17C)^19. Another version of PTHR1 in which yellow fluorescent protein (YFP) replaces the entire extracellular domain (PTHR1YFPΔECD, FIG. 12—Panel e)^21, was also used.

For the next assay, the target named is T2, rat PTHR1 (Rattus norvegicus, UniProt P25961).
T2 construct: expressed in transfected cells
T2 sequence (P25961 27-591): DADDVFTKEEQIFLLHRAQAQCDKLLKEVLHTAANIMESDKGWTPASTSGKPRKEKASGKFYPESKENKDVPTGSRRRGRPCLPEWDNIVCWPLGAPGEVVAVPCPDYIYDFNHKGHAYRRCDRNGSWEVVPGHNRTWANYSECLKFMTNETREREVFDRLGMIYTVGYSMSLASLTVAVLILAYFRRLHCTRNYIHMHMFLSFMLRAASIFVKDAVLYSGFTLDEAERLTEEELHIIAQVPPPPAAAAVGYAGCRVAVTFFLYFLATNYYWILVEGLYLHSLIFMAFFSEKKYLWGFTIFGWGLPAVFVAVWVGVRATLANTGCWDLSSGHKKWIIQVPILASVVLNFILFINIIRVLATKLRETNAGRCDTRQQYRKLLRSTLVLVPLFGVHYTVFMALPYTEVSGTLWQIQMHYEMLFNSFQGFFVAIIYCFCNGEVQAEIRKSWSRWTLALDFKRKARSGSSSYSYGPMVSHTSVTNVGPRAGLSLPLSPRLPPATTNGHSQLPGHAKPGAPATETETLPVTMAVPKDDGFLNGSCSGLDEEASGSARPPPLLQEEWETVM
The assay is described as follows: cAMP induction in HEK293 cells stably expressing rat PTHR1. The settings on record: maximal cAMP response, normalized. Format: cell-based. On the procedure: as §1, §2

The test system of the next assay is Mice (CD1 female). Nature of the assay: Calcemic response: blood ionized calcium in mice after subcutaneous injection. It counts as in vivo, mouse. The settings on record: 35 nmol/kg subcutaneous. On the procedure:
Animal experiments and measurement of in vivo response. Mice (CD1 female, age 11 weeks) were treated in accordance with the ethical guidelines adopted by Massachusetts General Hospital. […] Peptides and conjugates were administered at doses that allowed for differentiation between compounds with differing levels of in vivo activity^27. Statistical analyses were performed assuming Gaussian distribution of data. Mice (n=4 per compound) were injected subcutaneously with vehicle (10 mM citric acid/150 mM NaCl/0.05% Tween-80, pH 5.0) or vehicle containing PTH or conjugate at a dose of 35 nmol/kg body weight. […] Blood was withdrawn just before injection (t=0) or at times thereafter. Tail vein blood was collected and immediately analyzed. Blood Ca^2+ concentration was measured with a Siemens RapidLab 348 Ca2+/pH analyzer.

A word on the EC50: it is the concentration that produces a half-maximal response. With `CC[C@H](C)[C@H](NC(=O)[C@H](CCC(=O)O)NC(=O)[C@H](CO)NC(=O)[C@@H](NC(=O)[C@@H](N)CO)C(C)C)C(=O)N[C@@H](CCC(N)=O)C(=O)N[C@@H](CC(C)C)C(=O)N[C@@H](CCSC)C(=O)N[C@@H](Cc1cnc[nH]1)C(=O)N[C@@H](CC(N)=O)C(=O)N[C@@H](CC(C)C)C(=O)NCC(=O)N[C@@H](CCCCN)C(=O)N[C@@H](Cc1cnc[nH]1)C(=O)N[C@@H](CC(C)C)C(=O)N[C@@H](CC(N)=O)C(=O)N[C@@H](CO)C(=O)N[C@@H](CCSC)C(=O)N[C@@H](CCC(=O)O)C(=O)N[C@@H](CCCN=C(N)N)C(=O)N[C@H](C(=O)N[C@@H](CCC(=O)O)C(=O)N[C@@H](Cc1c[nH]c2ccccc12)C(=O)N[C@@H](CC(C)C)C(=O)N[C@@H](CCCN=C(N)N)C(=O)N[C@@H](CCCCN)C(=O)N[C@@H](CCCCN)C(=O)N[C@@H](CC(C)C)C(=O)N[C@@H](CCC(N)=O)C(=O)N[C@@H](CC(=O)O)C(=O)N[C@H](C(=O)N[C@@H](Cc1cnc[nH]1)C(=O)N[C@@H](CC(N)=O)C(=O)N[C@@H](Cc1ccccc1)C(=O)O)C(C)C)C(C)C` [PTH(1-34)], the “Max (normalized ± SD), hPTHR1” value on human PTHR1 was found to be 1.00 ± 0.00. In the assay on PTHR1YFPΔECD (maximal cAMP response, normalized), the “Max (normalized ± SD), hPTHR1YFPΔECD” value turned out to be 1.00 ± 0.00. The EC50 in the assay on PTHR1YFPΔECD (mean ± SD, Inactive = response <5% of maximal, read-out: EC50, cAMP induction, hPTHR1YFPΔECD) is 689 ± 301 nM. Also, the “Max (normalized ± SD), rPTHR1” value at rat PTHR1 was 1.00 ± 0.00. In addition, the “time of peak blood ionized calcium after injection” value with Mice (CD1 female) is 1 to 2 h. Further, in the assay with Mice (CD1 female) (n=4), the “blood ionized calcium response” value is listed as “strong increase”.
